Converted amounts (≈) assume the structure as drawn.
Columns and labels:
T. b. gambiense 40R = experiment: In vitro compound sensitivity assay (resazurin viability); assay type: cell-based; conditions: Trypanosoma brucei, 72 h
Procedure: (§1) T. b. brucei was cultured in complete HMI-9 medium,[20] which contains 10% fetal bovine serum (FBS) (Invitrogen, Carlsbad, CA), 10% Serum Plus medium (SAFC Biosciences, Lenexa, KS), and 100 units/mL penicillin and 0.1 mg/mL streptomycin. The trypanosomes were propagated in T-25 vented cap flasks (Corning Inc., Lowell, MA) at 37°C and 5% CO2 with humidity. To ensure log growth phase, trypanosomes were sub-cultured at appropriate dilutions (typically 1∶100) every 2–3 days in fresh HMI-9 medium. T. b. rhodesiense parasites were grown in MEM medium with Earle's salts supplemented with 15% horse serum. For T. b. gambiense, the MEM medium was supplemented with 5% heat-inactivated fetal calf serum (FCS) and 15% human serum.[21] L929 mouse fibroblast cells (ATCC CCL1, American Type Culture Collection, Rockville, MD) were used to determine parasite versus mammalian cell selectivity. Cells were cultured in Dulbecco's Modified Eagle Medium (DMEM), supplemented with 10% FBS, L-glutamine and 100 units/mL penicillin and 0.1 mg/mL streptomycin. MDCKII-hMDR1 cells were generously provided by P. Borst at the Netherlands Kancer Institute. Cells were cultured in DMEM with Glutamax, 10% (v/v) FBS, and 100 units/mL penicillin and 0.1 mg/mL streptomycin. Cell monolayers were fed with cell culture media 24 h after seeding and used for permeability studies 3 days later.
(§2) Compounds to be tested were serially diluted in DMSO and added to 96-well plates to give final concentrations ranging from 5 to 0.01 µg/mL. T. b. brucei parasites in the log phase of growth were diluted in HMI-9 media and added to each well for a final concentration of 1×10^4 parasites per well. For the sensitivity assays using T. b. rhodesiense and T. b. gambiense, pararasites were cultured in MEM supplemented with Baltz components (8), diluted in the aforementioned culture media, and added to each well at a density of 1×10^3 cells/well. The final concentration of DMSO was 0.5% and the total volume was 100 µL/well. After a 72 h incubation, resazurin (Sigma-Aldrich, St. Louis, MO) was added to each well [20 µL of 25 mg/100 mL stock in phosphate buffered saline (PBS)] and incubated for an additional 4–6 h.[22] To assess cell viability, fluorescence was quantified using an EnVision Multilabel Plate Reader (Perkin Elmer, Waltham, MA) at an excitation wavelength of 530 nm and emission of 590 nm. Triplicate data points were averaged to generate sigmoidal dose-response curves and determine IC50 values using XLfit curve fitting software from IDBS (Guilford, UK). The IC50 is defined as the amount of compound required to decrease parasite or cell viability by 50% compared to those grown in the absence of the test compound. […]

T. b. gambiense DAL 1402 = experiment: as above; assay type: cell-based; conditions: Trypanosoma brucei, 72 h incubation, n = 1
Procedure: as §1, §2

T. b. gambiense Drani = experiment: as above; assay type: cell-based; conditions: Trypanosoma brucei, 72 h incubation, n = 1
Procedure: as §1, §2

[1] = tested on: T. b. gambiense ITMAP 141267; experiment: as above; assay type: cell-based; conditions: Trypanosoma brucei, 72 h incubation, n = 1
Procedure: as §1, §2

[2] = Pharmacokinetics in cynomolgus monkeys; assay type: in vivo, cynomolgus monkey
Procedure: The blood distribution, CNS disposition and pharmacokinetics of SCYX-7158 were evaluated in infected or non-infected rodents following intravenous or oral administration of compounds. Pharmacokinetics and bioavailability of SCYX-7158 were also evaluated in non-infected beagle dogs and cynomolgus monkeys. In-life phases of non-infected rodent studies were performed at Vivisource (Waltham, MA); studies in non-naïve cynomolgus monkeys were performed by SNBL USA (Everett, WA). Male CD-1 mice (∼25 g), male Sprague-Dawley rats (∼225 g), or male cynomolgus monkeys (∼3–5 kg) were administered test article by either bolus intravenous injection (IV) or oral gavage. Animals in the IV groups received a single 2 mg/kg IV dose. Animals received oral doses of test articles as either single or twice daily doses ranging from 8 mg/kg to 50 mg/kg. All doses were administered as clear colorless solutions in either 50% (v/v) PEG 400: 20% (v/v) ethanol: 30% (v/v) carboxymethylcellulose (0.5% w/v in sterile water for injection) or 2% (v/v) ethanol: 5% (w/v) dextrose in sterile water for injection. […] For pharmacokinetic analysis, blood samples were collected from mice via cardiac puncture under terminal anaesthesia. Serial blood samples were collected from rats via a vascular access port located in the lateral saphenous vein. Mice and rats were euthanized in a CO2 chamber before collection of terminal blood samples or brain tissue. Blood samples were collected into polypropylene tubes containing K2EDTA anticoagulant and stored on ice until centrifuged for the preparation of plasma. Plasma was stored at −70°C. Whole brains were collected following decapitation, blotted dry, placed into polypropylene containers and then immediately frozen at approximately −70°C. CSF was collected from rats via cisterna magna puncture, placed in sterile polypropylene tubes, and stored at approximately −70°C. […] Treated samples were gently mixed at room temperature for 10 min, and then centrifuged at approximately 3000×g for 15 min at 15°C. The supernatants were transferred to 96-well plates or HPLC vials for analysis by LC-MS/MS. Pharmacokinetic parameters were calculated from composite mean plasma or tissue data using non-compartmental (oral and intravenous routes) and bi-exponential (intravenous route) analyses in Microsoft Excel.

[3] = Brain tissue binding by rapid equilibrium dialysis; assay type: in vitro ADME; conditions: mouse brain tissue; independent of concentration
Procedure: Binding to human or mouse plasma proteins or mouse brain homogenate was determined by rapid equilibrium dialysis (RED) (Pierce, Rockford, IL) using a 48-well plate-based format according to the manufacturer's instructions. Briefly, test compound at the required concentrations was added to fresh human or mouse plasma (Bioreclamation, Liverpool, NY) or freshly prepared mouse brain homogenate. Duplicate aliquots of each sample were transferred into the sample chambers of the RED devices, and dialysis buffer (BupH PBS) was added to the buffer chambers. The plates were sealed and incubated at 37°C for 4 h. After dialysis, samples collected from the buffer and tissue chambers were treated with ice-cold methanol (3 volumes for plasma, 4 volumes for brain) to precipitate proteins. The treated samples were centrifuged for 10 min at 3×10^3 g at 15°C. The supernatants were assayed for test compound by LC-MS/MS. Calibration standards and quality control samples were prepared in matched matrix and assayed with samples. Values for unbound and bound fractions and mass balance were calculated. Concordance of binding for each batch of plasma was confirmed by assay of warfarin, imipramine and carbamezapine. Acceptance criterion for mass balance was 70–120%.

[4] = Metabolism in primary hepatocytes; assay type: in vitro ADME, rat or dog; conditions: over 12 h

CC1(C)OB(O)c2cc(NC(=O)c3ccc(F)cc3C(F)(F)F)ccc21 [SCYX-7158]
IC50 (T. b. gambiense 40R): 0.363 µg/mL (≈ 0.989 µM)
IC50 (T. b. gambiense DAL 1402): 0.065 µg/mL (≈ 0.177 µM)
IC50 (T. b. gambiense Drani): 0.129 µg/mL (≈ 0.351 µM)
IC50 [1]: 0.092 µg/mL (≈ 0.251 µM)
time of Cmax ([2]; 10 mg/kg NG, plasma): 9.5 h
Kp ([2]; male, cynomolgus monkey, CSF/plasma, at each time point, read-out: CSF concentration as % of the plasma concentration): ~0.05
AUC(0-inf) ([2]; male, cynomolgus monkey, oral, 10 mg/kg SCYX-7158 NG, plasma): 460000 ng·h/mL
Cmax ([2]; male, cynomolgus monkey, oral, 10 mg/kg SCYX-7158 nasogastric (NG), plasma): 11000 ng/mL
bioavailability ([2]; male, cynomolgus monkey, plasma, po, 10 mg/kg NG, read-out: absolute oral bioavailability): 89%
CL/F ([2]; male, cynomolgus monkey, plasma, po, 10 mg/kg NG, read-out: oral clearance (Cl/F) (converted)): 0.417 mL/min/kg
clearance ([2]; male, cynomolgus monkey, plasma, 2 mg/kg IV): 0.367 mL/min/kg
Vd ([2]; male, cynomolgus monkey, plasma, 2 mg/kg IV, read-out: Vdss): 0.656 L/kg
AUC(0-inf) ([2]; male, cynomolgus monkey, 2 mg/kg IV, plasma): 94400 ng·h/mL
AUC(0-t) ([2]; male, cynomolgus monkey, 2 mg/kg IV, plasma, read-out: AUC0–24 h): 78800 ng·h/mL
fubrain [3]: ~5%
fraction of SCYX-7158 metabolized [4]: less than 5%

— publication PMC3125149, “SCYX-7158, an Orally-Active Benzoxaborole for the Treatment of Stage 2 Human African Trypanosomiasis” (PLoS Neglected Tropical Diseases, 2011)
